The record followed here is ChEMBL document CHEMBL2150930, “Design, synthesis and pharmacological evaluation of novel tacrine-caffeic acid hybrids as multi-targeted compounds against Alzheimer's disease” (Bioorg Med Chem Lett, 2012).

pIC50: −log10 of the molar value. The source made the active and inactive calls. No cut-off for these calls is given here.

The target of one data set is Acetylcholinesterase (Electrophorus electricus, UniProt O42275). Put plainly: Inhibition of electric eel AChE using […] as substrate preincubated for 20 mins by Ellman's method. Background: In Ellman's method for cholinesterases, released thiocholine reacts with DTNB.
Sequence of Acetylcholinesterase (O42275 whole entry): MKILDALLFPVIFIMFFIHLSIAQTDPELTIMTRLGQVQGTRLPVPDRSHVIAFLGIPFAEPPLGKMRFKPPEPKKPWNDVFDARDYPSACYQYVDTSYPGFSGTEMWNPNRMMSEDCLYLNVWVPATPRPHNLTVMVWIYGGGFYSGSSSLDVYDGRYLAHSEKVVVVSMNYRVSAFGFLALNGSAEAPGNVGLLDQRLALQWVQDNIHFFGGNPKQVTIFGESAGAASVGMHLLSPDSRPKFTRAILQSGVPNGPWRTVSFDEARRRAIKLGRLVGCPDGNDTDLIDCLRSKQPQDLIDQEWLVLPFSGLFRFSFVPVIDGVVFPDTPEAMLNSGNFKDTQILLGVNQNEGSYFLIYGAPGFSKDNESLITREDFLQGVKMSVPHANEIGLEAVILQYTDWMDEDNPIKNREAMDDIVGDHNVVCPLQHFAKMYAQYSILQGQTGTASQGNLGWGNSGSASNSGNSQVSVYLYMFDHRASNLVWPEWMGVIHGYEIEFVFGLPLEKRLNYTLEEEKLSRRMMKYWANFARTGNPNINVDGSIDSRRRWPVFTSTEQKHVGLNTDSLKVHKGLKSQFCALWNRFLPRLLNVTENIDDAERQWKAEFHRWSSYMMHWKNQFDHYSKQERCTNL
Data set [1] relates to Radical scavenging activity.
Description: Antioxidant activity of the compound assessed as DPPH radical scavenging activity after 60 mins
Another data set deals with Cholinesterase (Equus caballus, UniProt P81908).
Sequence of Cholinesterase (P81908 whole entry): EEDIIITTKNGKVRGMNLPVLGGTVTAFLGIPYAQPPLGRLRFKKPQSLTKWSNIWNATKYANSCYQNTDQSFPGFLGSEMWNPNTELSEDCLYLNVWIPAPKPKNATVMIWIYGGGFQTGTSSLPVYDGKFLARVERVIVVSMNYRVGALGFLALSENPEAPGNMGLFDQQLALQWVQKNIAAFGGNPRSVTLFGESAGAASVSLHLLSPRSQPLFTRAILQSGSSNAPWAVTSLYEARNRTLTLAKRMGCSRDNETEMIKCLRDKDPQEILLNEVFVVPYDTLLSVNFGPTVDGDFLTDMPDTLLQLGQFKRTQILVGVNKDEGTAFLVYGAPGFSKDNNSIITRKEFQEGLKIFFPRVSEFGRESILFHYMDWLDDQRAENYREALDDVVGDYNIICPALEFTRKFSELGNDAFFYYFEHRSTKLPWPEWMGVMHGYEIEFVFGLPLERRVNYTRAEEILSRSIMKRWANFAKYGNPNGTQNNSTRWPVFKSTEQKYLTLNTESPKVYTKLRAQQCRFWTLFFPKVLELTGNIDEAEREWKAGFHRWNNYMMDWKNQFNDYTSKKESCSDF
In data set [2] the test system is HT-22. Kind of data set: […] against mouse HT22 cells at 100 uM after 30 mins by LDH release assay. As to conditions: ht-22, 0.5 h. The format is cell-based. Background: LDH leaks from cells whose membrane has failed.
Data set [3] concerns HT-22. Put plainly: Cytotoxicity against mouse HT22 cells assessed as cell viability at 30 uM after 24 hrs by MTT assay. Conditions: ht-22, 24 h. The data set is classed as cell-based. A general note: Tetrazolium dyes change colour on reduction, which living cells bring about.
Data set [4] relates to HT-22. Kind of data set: Neuroprotective activity in mouse HT22 cells assessed as protection against H2O2-induced cell death at 3 to 30 uM preincubated for 30 mins prior to H2O2 challenge measured after 24 hrs by MTT assay. The data set is classed as functional, cell-based.
Data set [5] has as its target Acetylcholinesterase (Electrophorus electricus) (UniProt O42275). Put plainly: Mixed type inhibition of electric eel AChE using […] as substrate by Lineweaver-Burk plot analysis.
The nature of data set [6]: Antioxidant activity against Cu2+-mediated ROS formation in HEPES buffer at pH 7.4 assessed as compound-Cu2+ complex formation at 40 uM after 5 mins by UV-vis spectrophotometric analysis. The format is functional.
Data set [7] relates to HT-22. Kind of data set: Cytotoxicity against mouse HT22 cells at 100 uM after 30 mins by LDH release assay. Conditions: ht-22, 0.5 h. The format is cell-based.

Sequence of Acetylcholinesterase (Electrophorus electricus) (O42275 24-633 limits assumed): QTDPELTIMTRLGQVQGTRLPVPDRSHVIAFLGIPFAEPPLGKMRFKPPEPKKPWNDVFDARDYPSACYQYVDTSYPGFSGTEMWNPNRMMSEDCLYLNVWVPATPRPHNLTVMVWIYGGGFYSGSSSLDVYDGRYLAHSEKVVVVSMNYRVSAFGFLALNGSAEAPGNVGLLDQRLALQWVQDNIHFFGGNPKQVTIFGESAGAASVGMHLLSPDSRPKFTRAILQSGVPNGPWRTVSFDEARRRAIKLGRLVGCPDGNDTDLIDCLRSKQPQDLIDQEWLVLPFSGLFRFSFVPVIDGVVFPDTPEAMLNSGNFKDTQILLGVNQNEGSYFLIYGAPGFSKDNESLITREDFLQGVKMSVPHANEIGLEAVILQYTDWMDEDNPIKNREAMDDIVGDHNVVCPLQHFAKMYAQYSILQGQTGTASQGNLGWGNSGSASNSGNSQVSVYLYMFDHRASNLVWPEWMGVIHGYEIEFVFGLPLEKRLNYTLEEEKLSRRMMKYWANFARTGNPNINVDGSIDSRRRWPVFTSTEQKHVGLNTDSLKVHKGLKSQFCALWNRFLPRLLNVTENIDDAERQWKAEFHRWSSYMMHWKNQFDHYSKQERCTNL

What is called pIC50 is −log10 of the IC50, conventionally taken in molar units. A lower pIC50 goes with a high IC50. Consider `O=C(/C=C/c1ccc(O)c(O)c1)NCCCNc1c2c(nc3ccccc13)CCCC2`, for which the pIC50 against Acetylcholinesterase was 8.06; in data set [1], 4.95; against Cholinesterase it was 7.08.

Consider `O=C(/C=C/c1ccc(O)c(O)c1)NCCCNc1c2c(nc3cc(Cl)ccc13)CCCC2`, for which the pIC50 was 6.52 on Acetylcholinesterase, 5.32 in [1] and 4.53 on Cholinesterase. The values for the Activity entry in the data set with HT-22 [2], in the data set on HT-22 [3] and in the data set on HT-22 [7] were “Toxic”, “Toxic” and “Non-toxic”, respectively. In addition, the outcome (in the data set on HT-22 [4]; in data set [6]) was Active. Moreover, in [5], the inhibition result was “Active”.

For `O=C(/C=C/c1ccc(O)c(O)c1)NCCCCCCNc1c2c(nc3ccccc13)CCCC2`, the figures for the pIC50 (at Acetylcholinesterase; in data set [1]; at Cholinesterase) were 5.72, 4.98 and 5.41, respectively.

`O=C(/C=C/c1ccc(O)c(O)c1)NCCCCCCNc1c2c(nc3cc(Cl)ccc13)CCCC2`: the pIC50 is 5.20 against Acetylcholinesterase, 5.33 in data set [1] and 5.42 against Cholinesterase. Moreover, the Activity result with HT-22 [3] is listed as “Toxic”; in the data set with HT-22 [7] it was “Non-toxic”. For the same molecule, the result with HT-22 [4] was Active.

Consider `O=C(/C=C/c1ccc(O)c(O)c1)NCCNc1c2c(nc3cc(Cl)ccc13)CCCC2`, for which the values for the pIC50 (at Acetylcholinesterase; in data set [1]; on Cholinesterase) were 6.00, 5.01 and 5.26, respectively. In addition, the outcome in the data set on HT-22 [4] was Active.

Consider `O=C(/C=C/c1ccc(O)c(O)c1)NCCNc1c2c(nc3ccccc13)CCCC2`, for which the figures for the pIC50 (against Acetylcholinesterase; in [1]; on Cholinesterase) were 5.74, 4.85 and 5.64, respectively.
